# Patent US20220089663A1, “PROTEINS AND FLUOROPHORE-CONTAINING COMPOUNDS SELECTIVE FOR NaV1.7” (MEMORIAL SLOAN KETTERING CANCER CENTER, priority 2019, published 2022)
# Key:
# hNav1.1 = biological target: T1, hNav1.1 (Homo sapiens, UniProt P35498); test: automated whole-cell patch clamp (QPatch 16X), HEK293-hNav1.1; type: cell-based
# T1 construct: host or cells: HEK293
# hNav1.5 = biological target: T2, hNav1.5 (Homo sapiens, UniProt Q14524); test: automated whole-cell patch clamp (QPatch 16X), HEK293-hNav1.5; type: cell-based
# T2 construct: host or cells: HEK293
# [1] = 10 μM, 37° C.
# CVH mice = test: visceromotor response (VMR) to colorectal distension in chronic visceral hypersensitivity (CVH) mice; type: in vivo, mouse; settings: intra-colonic 200 nM
# Procedure: Model of Chronic Visceral Hypersensitivity (CVH). All experiments were performed in accordance with the guidelines of the Animal Ethics Committees of the South Australian Health and Medical Research Institute (SAHMRI) and Flinders University. Male C57 BL/6 mice were used in all experiments.
# Colitis was induced by administration of Trinitrobenzene Sulphonic acid (TNBS) as described previously (Castro et al., Gut 66(6):1083-1094 (2017); Osteen et al., Nature 534: 494-499 (2016)). Briefly, 13-week-old mice were fasted overnight with access to 5% glucose solution. After the fasting period, isofluorane anaesthetized mice were administered an intracolonic enema of 0.1 mL TNBS ([…] in 30% EtOH) via a polyethylene catheter inserted 3 cm past the anus. […]
# In vivo Visceromotor Responses (VMR) to Colorectal Distension (CRD). […] The EMG electrodes were relayed to a data acquisition system and the signal was recorded (NL100AK headstage), amplified (NL104), filtered (NL 125/126, Neurolog, Digitimer Ltd, bandpass 50-5000 Hz) and digitized (CED 1401, Cambridge Electronic Design, Cambridge, UK) to a PC for off-line analysis using Spike2 (Cambridge Electronic Design). […] To quantify the magnitude of the VMR at each distension pressure, the area under the curve (AUC) during the distension (20 s) was corrected for the baseline activity (AUC pre-distension, 20 s).
# hNav1.7 = biological target: T3, hNav1.7 (Homo sapiens, UniProt Q15858); test: conventional whole cell patch clamp, kinetic studies on hNav1.7; type: cell-based
# T3 construct: host or cells: HEK293
# Procedure: Conventional patch clamp. Coverslips containing cells of HEK293 stable expressing hNav1.7 α and human β1 subunits were placed in a recording chamber on the stage of an inverted microscope with the extracellular solution containing 140 mM NaCl, 2 mM CaCl2, 4 mM KCl, 1 mM MgCl2, and 10 mM HEPES (pH 7.4 with NaOH). […] All recordings were made at room temperature (22-24° C.) using MultiClamp 700B amplifier, Axo™ Digidata® 1550B and PCLAMP software (Molecular Devices). Nav channel currents were measured using the whole cell configuration of the patch clamp technique. All peptides were dissolved in the extracellular solution with 0.1% BSA. The effects of peptides were tested by using the same voltage protocol as showing in the Qpatch technique. Concentration response data were analysed using nonlinear least-squares fit of the log (inhibitor) vs. response (three parameters) (GraphPad Prism 7) to provide pIC50 determinations. The conductance-voltage (G-V) relationships obtained by using a protocol in which cells depolarised from a holding potential of −120 mV, stepping from −80 to +60 mV in 5 mV increments. Steady-state inactivation was obtained by applying a depolarisation to 0 mV following a series step potential from −120 mV to 20 mV in 5 mV increments. The V0.5 activation and inactivation were calculated by fitting data with Boltzmann equation in GraphPad Prism 7. Recovery from fast inactivation was obtained by applying a first 0 mV pulse followed by repolarisation to −120 mV and a second pulse to 0 mV after a period ranging from 0 to 50 ms, increasing in 1 ms increments. The time constant was calculated by fitting data with one-phase decay in GraphPad Prism 7.
# [2] = 60 nM, compared to vehicle, P<0.01
# T3 sequence (Q15858 whole entry): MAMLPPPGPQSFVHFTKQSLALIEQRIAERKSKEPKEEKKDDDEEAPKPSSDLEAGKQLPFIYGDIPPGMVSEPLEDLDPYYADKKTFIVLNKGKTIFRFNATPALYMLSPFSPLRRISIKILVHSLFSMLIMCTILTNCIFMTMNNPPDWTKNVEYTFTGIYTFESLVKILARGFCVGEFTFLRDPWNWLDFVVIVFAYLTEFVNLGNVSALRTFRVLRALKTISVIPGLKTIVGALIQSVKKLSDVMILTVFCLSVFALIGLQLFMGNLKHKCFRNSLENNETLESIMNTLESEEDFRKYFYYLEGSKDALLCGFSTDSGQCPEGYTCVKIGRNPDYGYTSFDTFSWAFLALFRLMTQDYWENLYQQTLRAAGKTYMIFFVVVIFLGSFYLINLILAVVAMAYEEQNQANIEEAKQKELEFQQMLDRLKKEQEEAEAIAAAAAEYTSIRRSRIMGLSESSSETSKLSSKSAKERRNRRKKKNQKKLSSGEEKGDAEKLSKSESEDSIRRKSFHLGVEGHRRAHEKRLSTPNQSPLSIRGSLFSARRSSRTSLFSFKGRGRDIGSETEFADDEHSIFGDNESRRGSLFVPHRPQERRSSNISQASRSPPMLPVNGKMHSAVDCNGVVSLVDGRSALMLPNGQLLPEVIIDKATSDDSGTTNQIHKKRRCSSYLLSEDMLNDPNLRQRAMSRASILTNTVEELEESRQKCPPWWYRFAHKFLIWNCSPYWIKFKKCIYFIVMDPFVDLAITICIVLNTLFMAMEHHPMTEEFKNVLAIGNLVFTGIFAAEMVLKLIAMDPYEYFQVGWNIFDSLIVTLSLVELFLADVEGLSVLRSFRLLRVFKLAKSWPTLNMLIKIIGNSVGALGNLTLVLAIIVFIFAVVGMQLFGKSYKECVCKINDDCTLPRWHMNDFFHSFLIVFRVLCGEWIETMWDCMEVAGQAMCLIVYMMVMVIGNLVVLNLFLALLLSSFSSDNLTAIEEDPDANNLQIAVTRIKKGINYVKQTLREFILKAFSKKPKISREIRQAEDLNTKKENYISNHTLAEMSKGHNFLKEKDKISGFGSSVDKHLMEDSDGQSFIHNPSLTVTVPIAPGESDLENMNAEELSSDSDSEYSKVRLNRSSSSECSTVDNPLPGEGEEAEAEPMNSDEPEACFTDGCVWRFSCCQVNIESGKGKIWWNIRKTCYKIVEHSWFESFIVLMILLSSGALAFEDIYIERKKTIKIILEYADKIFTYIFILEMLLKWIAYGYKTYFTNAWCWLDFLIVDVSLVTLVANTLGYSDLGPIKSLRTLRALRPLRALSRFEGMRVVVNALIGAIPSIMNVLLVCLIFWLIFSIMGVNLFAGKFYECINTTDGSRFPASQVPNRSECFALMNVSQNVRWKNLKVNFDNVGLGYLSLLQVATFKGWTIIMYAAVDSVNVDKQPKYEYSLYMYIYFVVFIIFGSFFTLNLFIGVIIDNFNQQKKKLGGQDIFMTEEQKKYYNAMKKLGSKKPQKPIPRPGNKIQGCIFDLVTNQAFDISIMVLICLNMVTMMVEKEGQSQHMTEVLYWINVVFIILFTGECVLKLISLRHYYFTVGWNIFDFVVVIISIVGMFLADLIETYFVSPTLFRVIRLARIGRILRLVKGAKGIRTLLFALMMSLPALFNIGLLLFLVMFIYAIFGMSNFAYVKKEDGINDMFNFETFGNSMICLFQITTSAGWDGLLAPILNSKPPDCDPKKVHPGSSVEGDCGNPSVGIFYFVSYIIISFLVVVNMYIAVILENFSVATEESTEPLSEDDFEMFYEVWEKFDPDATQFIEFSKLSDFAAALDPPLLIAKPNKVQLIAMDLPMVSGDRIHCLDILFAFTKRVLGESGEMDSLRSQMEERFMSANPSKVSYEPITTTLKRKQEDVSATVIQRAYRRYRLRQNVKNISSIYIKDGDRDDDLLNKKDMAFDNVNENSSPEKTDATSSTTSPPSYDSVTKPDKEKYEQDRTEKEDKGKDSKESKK
# T3 sequence (Q07699 19-218, further chain): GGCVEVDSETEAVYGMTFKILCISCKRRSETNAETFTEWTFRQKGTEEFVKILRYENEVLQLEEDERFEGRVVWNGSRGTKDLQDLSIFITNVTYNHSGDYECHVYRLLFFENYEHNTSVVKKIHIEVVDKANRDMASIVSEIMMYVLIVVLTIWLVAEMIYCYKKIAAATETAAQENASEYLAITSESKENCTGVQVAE
# T2 sequence (Q14524 whole entry): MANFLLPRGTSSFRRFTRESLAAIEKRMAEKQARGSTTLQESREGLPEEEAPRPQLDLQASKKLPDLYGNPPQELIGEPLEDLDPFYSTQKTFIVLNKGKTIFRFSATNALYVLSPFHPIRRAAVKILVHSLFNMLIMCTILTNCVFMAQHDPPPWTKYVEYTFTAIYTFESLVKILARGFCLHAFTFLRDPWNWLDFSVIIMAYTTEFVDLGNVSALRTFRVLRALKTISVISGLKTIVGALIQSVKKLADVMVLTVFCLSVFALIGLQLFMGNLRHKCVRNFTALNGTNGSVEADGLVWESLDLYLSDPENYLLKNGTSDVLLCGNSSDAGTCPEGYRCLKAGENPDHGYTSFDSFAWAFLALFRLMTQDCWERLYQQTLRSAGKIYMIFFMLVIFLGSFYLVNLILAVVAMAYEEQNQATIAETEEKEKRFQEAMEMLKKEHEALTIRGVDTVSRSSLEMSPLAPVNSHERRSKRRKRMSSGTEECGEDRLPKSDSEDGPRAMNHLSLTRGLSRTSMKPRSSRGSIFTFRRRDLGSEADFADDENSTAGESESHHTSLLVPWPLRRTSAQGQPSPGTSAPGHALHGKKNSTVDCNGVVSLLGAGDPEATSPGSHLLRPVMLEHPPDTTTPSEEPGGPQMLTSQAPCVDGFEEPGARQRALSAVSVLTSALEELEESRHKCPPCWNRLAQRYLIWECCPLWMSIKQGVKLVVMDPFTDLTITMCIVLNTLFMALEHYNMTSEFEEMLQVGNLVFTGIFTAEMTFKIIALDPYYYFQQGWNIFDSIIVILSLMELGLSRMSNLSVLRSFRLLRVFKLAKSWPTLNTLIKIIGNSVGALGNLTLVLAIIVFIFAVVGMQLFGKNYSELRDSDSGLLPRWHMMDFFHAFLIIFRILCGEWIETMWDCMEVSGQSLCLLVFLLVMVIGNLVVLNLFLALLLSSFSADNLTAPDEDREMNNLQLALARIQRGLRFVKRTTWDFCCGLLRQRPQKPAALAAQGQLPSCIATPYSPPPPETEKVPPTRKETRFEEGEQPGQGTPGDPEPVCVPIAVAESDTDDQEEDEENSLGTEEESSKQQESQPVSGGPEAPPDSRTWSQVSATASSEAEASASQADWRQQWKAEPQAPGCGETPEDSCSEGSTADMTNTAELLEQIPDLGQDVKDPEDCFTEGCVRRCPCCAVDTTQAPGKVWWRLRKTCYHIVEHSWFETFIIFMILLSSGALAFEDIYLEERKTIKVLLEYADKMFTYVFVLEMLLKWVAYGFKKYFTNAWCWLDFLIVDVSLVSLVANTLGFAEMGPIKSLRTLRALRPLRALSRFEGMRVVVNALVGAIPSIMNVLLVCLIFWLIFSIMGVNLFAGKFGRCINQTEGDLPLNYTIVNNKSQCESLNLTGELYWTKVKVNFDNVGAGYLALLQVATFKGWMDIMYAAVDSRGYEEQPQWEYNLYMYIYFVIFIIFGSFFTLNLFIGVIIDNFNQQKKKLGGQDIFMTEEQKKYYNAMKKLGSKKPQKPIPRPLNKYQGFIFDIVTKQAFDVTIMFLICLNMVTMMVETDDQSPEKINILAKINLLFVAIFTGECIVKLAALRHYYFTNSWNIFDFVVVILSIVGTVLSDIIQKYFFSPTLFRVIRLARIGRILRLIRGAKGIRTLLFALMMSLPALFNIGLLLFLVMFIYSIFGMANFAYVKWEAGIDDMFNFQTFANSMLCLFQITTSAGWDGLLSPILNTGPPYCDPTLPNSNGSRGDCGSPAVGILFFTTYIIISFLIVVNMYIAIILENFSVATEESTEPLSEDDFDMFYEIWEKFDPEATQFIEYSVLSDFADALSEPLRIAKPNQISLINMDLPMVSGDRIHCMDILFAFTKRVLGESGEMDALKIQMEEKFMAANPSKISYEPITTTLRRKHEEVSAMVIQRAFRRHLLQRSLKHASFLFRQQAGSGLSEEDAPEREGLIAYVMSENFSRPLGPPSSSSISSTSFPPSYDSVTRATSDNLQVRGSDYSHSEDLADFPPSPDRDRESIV
smiles,measurement,setting,value
CC[C@H](C)[C@H](NC(=O)[C@H](CCCCN)NC(=O)[C@@H]1CSSC[C@@H]2NC(=O)[C@@H]3CCCN3C(=O)[C@H](CCCNC(=N)N)NC(=O)[C@H](CCC(=O)O)NC(=O)[C@H](CO)NC(=O)[C@H](CC(=O)O)NC(=O)[C@@H]3CSSC[C@H](NC(=O)[C@H](C(C)C)NC(=O)[C@H](CC(C)C)NC(=O)CNC(=O)[C@H](CCC(=O)O)NC(=O)[C@H](CSSC[C@H](NC(=O)[C@@H](N)Cc4ccc(O)cc4)C(=O)N[C@@H](CCC(N)=O)C(=O)N[C@@H](CCCCN)C(=O)N[C@@H](Cc4ccccc4)C(=O)N[C@@H](CC(C)C)C(=O)N[C@@H](Cc4c[nH]c5ccccc45)C(=O)N[C@@H]([C@@H](C)O)C(=O)N3)NC2=O)C(=O)N[C@@H](CCCNC(=N)N)C(=O)N[C@@H](CC(C)C)C(=O)N[C@@H](Cc2c[nH]c3ccccc23)C(=O)N1)C(=O)N[C@@H](CC(N)=O)C(N)=O [sHsp1a],hNav1.1 currents blocked,hNav1.1; at 200 nM,30%
same,inhibition at 2 µM,"hNav1.1; at 2 μM, read-out: current inhibition hNav1.1",75%
same,IC50,"hNav1.1; mean±S.E.M, read-out: pIC50 on hNav1.1 (converted)",407 nM
same,inhibition of hNav1.5 currents,hNav1.5; at 200 nM,did not show any significant inhibition
same,sensitivity of hNav1.5,hNav1.5; at 2 μM,insensitive
same,inhibition at 2 µM,"hNav1.5; at 2 μM, read-out: max. current inhibition hNav1.5",< 50%
same,IC50,hNav1.5; read-out: pIC50 on hNav1.5 (converted),> 1000 nM
same,amount in human serum after 24 hours,[1],remained constant
same,VMR to colorectal distension compared to CVH vehicle treated animals,CVH mice,significantly reduced the VMR
same,V0.5 inactivation Δ,hNav1.7; [2],−11.62 mV
same,"Δτ, recovery from fast inactivation",hNav1.7; [2],1 ms
same,time for currents to recover following washout in peptide-free solution,hNav1.7; after application of 200 nM for 4 min,~10 min
same,time constant τ of recovery from fast inactivation,"hNav1.7; in presence of 60 nM, n=5, mean±SEM",5.03 ± 0.43 ms
